Source: publication PMC2693028 (ChemMedChem, 2008)
Converted amounts (≈) assume the structure as drawn. “And” between values parts separate entries of the source, which are not always exact repeats. Equal values may be shown once. Read-outs that look alike come from different tables or passages of the source.

What was measured:
ΔANR B. anthracis = experiment: microbe, parasite or virus in culture; type: cell-based, Bacillus anthracis
[1] = target: Enoyl reducase (ENR) from Bacillus anthracis (BaENR) (Bacillus anthracis, UniProt A0A6L8PBX8); experiment: biochemical; conditions: for inhibition at 1 µM: read-out: % inhibition at 1μM
[2] = system: Escherchia coli (ATCC strain 25922); experiment: microbe, parasite or virus in culture; type: cell-based; conditions: Escherichia coli, ATCC25922
[3] = system: Pseudomonas aeruginosa (ATCC strain 27853); experiment: microbe, parasite or virus in culture; type: cell-based; conditions: ATCC27853
[4] = system: vancomycin–resistant Enterococcus (VRE) (ATCC strain 51299); experiment: microbe, parasite or virus in culture; type: cell-based; conditions: Enterococcus, ATCC51299|VRE
[5] = system: Enterococcus fecalis (ATCC strain 29212); experiment: microbe, parasite or virus in culture; type: cell-based; conditions: Enterococcus, ATCC29212
[6] = system: Sterne strain B. anthracis; experiment: microbe, parasite or virus in culture; type: cell-based, Bacillus anthracis; conditions: Bacillus anthracis
[7] = system: Listeria monocytogenes (10403S); experiment: microbe, parasite or virus in culture; type: cell-based; conditions: Listeria monocytogenes
[8] = system: methicillin–resistant Staphylococcus aureus (ATCC strain 43300); experiment: microbe, parasite or virus in culture; type: cell-based; conditions: Staphylococcus aureus, ATCC43300|MRSA
[9] = system: Klebsiella pneumoniae (ATCC strain 700603); experiment: microbe, parasite or virus in culture; type: cell-based; conditions: Klebsiella pneumoniae, ATCC700603
[10] = system: Staphylococcus aureus (ATCC strain 29213); experiment: microbe, parasite or virus in culture; type: cell-based; conditions: ATCC29213|MSSA

Sequence of Enoyl reducase (ENR) from Bacillus anthracis (BaENR) (A0A6L8PBX8 1-256): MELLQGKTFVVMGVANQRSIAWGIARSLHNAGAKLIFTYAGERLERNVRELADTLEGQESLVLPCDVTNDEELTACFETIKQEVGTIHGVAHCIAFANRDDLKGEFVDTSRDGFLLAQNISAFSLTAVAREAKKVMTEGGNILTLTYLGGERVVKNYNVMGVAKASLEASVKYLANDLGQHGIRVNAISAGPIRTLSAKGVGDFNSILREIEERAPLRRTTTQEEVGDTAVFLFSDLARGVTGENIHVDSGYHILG

Row | Molecule | MIC (ΔANR B. anthracis; Bacillus anthracis) [µg/mL] | IC50 ([1]; IC50) | inhibition at 1 µM [1] [%] | other results
1 | 3-[3-(2-Hydroxy-4-propylphenoxy)phenyl]propionic acid [Compound 50] | – | – | – | MIC (ΔANR B. anthracis): 14.9 µg/mL; % inhibition at 1μM [1]: 17.9%
2 | O=C(O)c1cn(C2CC2)c2cc(N3CCNCC3)c(F)cc2c1=O [Cipro, reference compound] | 0.1 (≈ 0.302 µM) | – | – | MIC [2]: 0.1 µg/mL (≈ 0.302 µM); MIC [3]: 0.3 ± 0.1 µg/mL (≈ 0.905 µM); MIC [4]: 0.6 ± 0.2 µg/mL (≈ 1.81 µM); MIC [5]: 0.7 ± 0.1 µg/mL (≈ 2.11 µM); MIC [6]: 0.1 µg/mL (≈ 0.302 µM); MIC [7]: 0.9 ± 0.3 µg/mL (≈ 2.72 µM); MIC [8]: 0.5 ± 0.2 µg/mL (≈ 1.51 µM); MIC [9]: 0.5 ± 0.1 µg/mL (≈ 1.51 µM); MIC [10]: 0.4 µg/mL (≈ 1.21 µM)
3 | Oc1ccc(Oc2ccccc2)c(O)c1 [Compound 1, 4-Phenoxybenzene-1,3-diol] | 64 (≈ 317 µM) | 6.3 ± 0.4 µM | – | –
4 | O=[N+]([O-])c1ccc(Oc2ccccc2)c(O)c1 [Compound 2, 5-Nitro-2-phenoxyphenol] | 5.8 (≈ 25.1 µM) | > 50 µM | – | –
5 | Oc1ccc(Oc2ccc(Cl)cc2O)cc1 [Compound 3, 5-Chloro-2-(4-hydroxyphenoxy)phenol] | > 64 | – | 2.6 | –
6 | O=[N+]([O-])c1ccc(Oc2ccc(Cl)cc2O)cc1 [Compound 4, 5-Chloro-2-(4-nitrophenoxy)phenol] | 3.3 (≈ 12.4 µM) | – | – | –
7 | O=[N+]([O-])c1ccccc1Oc1ccc(Cl)cc1O [Compound 5, 5-Chloro-2-(2-nitrophenoxy)phenol] | 13.3 (≈ 50.1 µM) | 7.7 ± 0.7 µM | – | –
8 | Oc1cc(Cl)ccc1Oc1ccc(-c2ccccc2)cc1 [Compound 7, 2-(Biphenyl-4-yloxy)-5-chlorophenol] | 1.9 (≈ 6.4 µM) | > 6.25 µM | – | –
9 | CCCc1ccc(Oc2ccc([N+](=O)[O-])cc2)c(O)c1 [Compound 8, 2-(4-Nitrophenoxy)-5-propylphenol] | 3.4 (≈ 12.4 µM) | 1.1 ± 0.1 µM | – | –
10 | CCCc1ccc(Oc2cccc([N+](=O)[O-])c2)c(O)c1 [Compound 9, 2-(3-Nitrophenoxy)-5-propylphenol] | 1.7 (≈ 6.22 µM) | > 0.8 µM | – | –
11 | CCCc1ccc(Oc2ccc([N+](=O)[O-])cc2[N+](=O)[O-])c(O)c1 [Compound 10, 2-(2,4-Dinitrophenoxy)-5-propylphenol] | 4 (≈ 12.6 µM) | 3.6 ± 0.8 µM | – | –
12 | CCCc1ccc(Oc2ccc(C#N)cc2Cl)c(O)c1 [Compound 12, 3-Chloro-4-(2-hydroxy-4-propylphenoxy)benzonitrile] | 1.8 (≈ 6.26 µM) | > 0.8 µM | – | –
13 | CCCc1ccc(Oc2cccc(CCO)c2)c(O)c1 [Compound 13, 2-[3-(2-Hydroxy-ethyl)phenoxy]-5-propylphenol] | 1.7 (≈ 6.24 µM) | – | – | IC50 [1]: 6 ± 1.5 µM
14 | O=C(O)c1cc(Cl)ccc1Oc1ccccc1 [Compound 14, 5-Chloro-2-phenoxybenzoic acid] | – | – | 0 | –
15 | CCCc1ccc(Oc2ccc(C(N)=O)cc2Cl)c(O)c1 [Compound 15, 3-Chloro-4-(2-hydroxy-4-propylphenoxy)benzamide] | 30.6 (≈ 100 µM) | 1.1 ± 0.1 µM | – | –
16 | OCc1cc(Cl)ccc1Oc1ccccc1 [Compound 16, 5-Chloro-2-phenoxyphenylmethanol] | – | – | 1.8 | –
17 | NC(=O)c1cc(Cl)ccc1Oc1ccccc1 [Compound 17, 5-Chloro-2-phenoxybenzamide] | – | – | 0 | –
18 | CC(=O)Nc1ccc(Oc2ccc(Cl)cc2O)cc1 [Compound 18, N-[4-(4-Chloro-2-hydroxy-phenoxy)phenyl]acetamide] | 111 (≈ 400 µM) | – | 1.6 | –
19 | CC(=O)Nc1ccccc1Oc1ccc(Cl)cc1O [Compound 19, N-[2-(4-Chloro-2-hydroxy-phenoxy)phenyl]acetamide] | 111 (≈ 400 µM) | – | 0 | –
20 | Nc1ccc(Oc2ccc(Cl)cc2O)cc1 [Compound 20, 2-(4-Aminophenoxy)-5-chlorophenol] | 12 (≈ 50.9 µM) | 7 µM and 7.1 µM | – | –
21 | CCCc1ccc(Oc2ccc(N)cc2)c(O)c1 [Compound 21, 2-(4-Aminophenoxy)-5-propylphenol] | > 97 | 8.8 ± 1 µM | – | –
22 | Cc1ccc(S(=O)(=O)Nc2ccc(Oc3ccc(Cl)cc3O)cc2)cc1 [Compound 22, 4-(4-Chloro-2-hydroxyphenoxy)-1-(4 methylphenylsulphonamido) benzene] | 4.9 (≈ 12.6 µM) | > 12 µM | – | –
23 | CC(=O)Nc1ccc(Oc2ccc(Cl)cc2O)cn1 [Compound 24, N-[5-(4-Chloro-2-hydroxyphenoxy)-pyridin-2-yl]acetamide] | > 112 | 4.1 µM | – | –
24 | OCC(O)Cc1ccc(Oc2ccccc2)c(O)c1 (stereo not shown) [Compound 26, 3-(3-Hydroxy-4-phenoxyphenyl)propane-1,2-diol] | > 104 | – | 9.8 | –

Row | Molecule | MIC (ΔANR B. anthracis; Bacillus anthracis) [µg/mL] | IC50 ([1]; IC50) | inhibition at 1 µM [1] [%] | other results
25 | CCCc1ccc(Oc2ccccc2)c(O)c1 [Compound 27, 2-Phenoxy-5-propylphenol] | 22.8 (≈ 99.9 µM) | > 0.8 µM | – | –
26 | OCc1ccc(Oc2ccccc2)c(O)c1 [Compound 28, 5-Hydroxymethyl-2-phenoxyphenol] | 43 (≈ 199 µM) | – | 5 | –
27 | CCCC(C)NCc1ccc(Oc2ccccc2)c(O)c1 (stereo not shown) [Compound 29, 5-[(1-Methyl-butylamino)methyl]-2-phenoxyphenol] | > 109 | – | 0 | –
28 | Oc1cc(CN2CCCCC2)ccc1Oc1ccccc1 [Compound 30, 2-Phenoxy-5-piperidin-1-ylmethylphenol] | > 113 | – | 0 | –
29 | Oc1cc(CNCc2ccccc2)ccc1Oc1ccccc1 [Compound 31, 5-(Benzylaminomethyl)-2-phenoxyphenol] | > 122 | – | 7.9 | –
30 | Oc1cc(Cl)ccc1Oc1ccc(Oc2ccc(Cl)cc2O)cc1 [Compound 32, 2-[4-(2-Hydroxy-4-Chlorophenoxy)phenoxy]-5-chlorophenol] | > 145 | – | 15.5 | –
31 | Oc1cc(Cl)ccc1Oc1cccc(Oc2ccc(Cl)cc2O)c1 [Compound 33, 2-[3-(2-Hydroxy-4-chlorophenoxy)phenoxy]-5-chlorophenol] | 2.3 (≈ 6.33 µM) | – | 9.9 | –
32 | CCCc1ccc(Oc2cccc(Oc3ccc(CCC)cc3O)c2)c(O)c1 [Compound 34, 2-[3-(2-Hydroxy-4-propylphenoxy)phenoxy]-5-Propylphenol] | 1.2 (≈ 3.17 µM) | – | 20.6 | –
33 | CCCc1ccc(Oc2ccc(Oc3ccc(CCC)cc3O)cc2)c(O)c1 [Compound 35, 2-[4-(2-Hydroxy-4-propylphenoxy)phenoxy]-5-propylphenol] | > 151 | – | 10 | –
34 | CCCc1ccc(Oc2cccc(-c3ccccc3)c2)c(O)c1 [Compound 36, 2-(Biphenyl-3-yloxy)-5-propylphenol] | 1.9 (≈ 6.24 µM) | – | – | IC50 [1]: 0.5 ± 0.1 µM
35 | CCCc1ccc(Oc2cccc(C(=O)OC)c2)c(O)c1 [Compound 37, 3-(2-Hydroxy-4-propylphenoxy)benzoic acid methyl ester] | 3.6 (≈ 12.6 µM) | 2 ± 0.3 µM | – | –
36 | CCCc1ccc(Oc2cccc(C(=O)O)c2)c(O)c1 [Compound 39, 3-(2-Hydroxy-4-propylphenoxy)benzoic acid] | 6.8 (≈ 25 µM) | – | 9.2 | –
37 | CCCc1ccc(Oc2ccc(C(C)=O)cc2)c(O)c1 [Compound 40, 1-[4-(2-Hydroxy-4-propylphenoxy)phenyl]ethanone] | 13.5 (≈ 49.9 µM) | 0.8 ± 0.1 µM | – | –
38 | CCCc1ccc(Oc2ccc(SC)cc2)c(O)c1 [Compound 41, 2-(4-Methylsulfanylphenoxy)-5-propylphenol] | 13.5 (≈ 49.2 µM) | 0.6 µM | – | –
39 | CCCc1ccc(Oc2ccc(C(C)O)cc2)c(O)c1 (stereo not shown) [Compound 42, 2-[4-(1-Hydroxyethyl)phenoxy]-5-propylphenol] | 54.5 (≈ 200 µM) | – | 17.1 | –
40 | CCCc1ccc(Oc2ccc([S+](C)[O-])cc2)c(O)c1 (stereo not shown) [Compound 43, 2-(4-Methanesulfinylphenoxy)-5-propylphenol] | 116 (≈ 399 µM) | 3.6 ± 0.3 µM | – | –
41 | CCCc1ccc(Oc2ccc(S(C)(=O)=O)cc2)c(O)c1 [Compound 44, 2-(4-Methanesulfonylphenoxy)-5-propylphenol] | 61.3 (≈ 200 µM) | 2.2 ± 0.3 µM | – | –
42 | CCCc1ccc(Oc2cccc(N(C)C)c2)c(O)c1 [Compound 45, 2-(3-Dimethylaminophenoxy)-5-propylphenol] | 13.6 (≈ 50.1 µM) | – | 12.6 | –
43 | CCCc1ccc(Oc2cccc(C(F)(F)F)c2)c(O)c1 [Compound 46, 5-Propyl-2-(3-trifluoromethylphenoxy)phenol] | 7.4 (≈ 25 µM) | – | – | IC50 [1]: 1.24 µM
44 | CCCc1ccc(Oc2cccc(C=CC(=O)OC)c2)c(O)c1 [Compound 48, 3-[3-(2-Hydroxy-4-propylphenoxy)phenyl]acrylic acid methyl ester] | 2 (≈ 6.4 µM) | > 6.25 µM | – | –
45 | CCCc1ccc(Oc2cccc(CCC(=O)OC)c2)c(O)c1 [Compound 49, 3-[3-(2-Hydroxy-4-propylphenoxy)phenyl]propionic acid methyl ester] | 7.9 (≈ 25.1 µM) | 7.5 ± 1.9 µM | – | –
46 | CCCc1ccc(Oc2cccc(CCC(=O)O)c2)c(O)c1 [Compound 51, 3-[3-(2-Hydroxy-4-propylphenoxy)phenyl]propionic acid] | 60.1 (≈ 200 µM) | – | 17.6 | –
47 | Clc1ccc(Oc2ccc(Cl)cc2Oc2cccnc2)c(Cl)c1 [Compound 52, 3-[5-Chloro-2-(2,4-dichlorophenoxy)phenoxy]pyridine] | – | – | 0.5 | –
